Measured values as given in patent US7173061B2, “Compounds for imaging alzheimer's disease” (GE Healthcare Limited, priority 2001, dated 2007).
No end group written: not given here.

molecular target: T1, amyloid 1-40 fibrils (fibrillar BAP 1-40) (Homo sapiens, UniProt P05067); assay: Determination of amyloid binding (scintillation proximity assay beads coated with fibrillar BAP 1-40); details: SPA-BAP beads, 180 minutes at room temperature, equimolar amounts, SPA-NSB counts subtracted; 125I-BAP binding taken as 100%
T1 construct: used to immobilise fibrillar Beta-Amyloid Protein (BAP 1-40); purchased Biosource 03-138 (BAP 1-40); 03-243 (biotinylated BAP 1-40)
T1 sequence (P05067 672-711): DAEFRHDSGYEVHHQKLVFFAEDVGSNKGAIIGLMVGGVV
Procedure: The binding of Compounds was determined compared to the ability of ^125I-beta amyloid protein 1-40 (^125I-BAP 1-40, Amersham Biosciences IM294)) to bind to amyloid 1-40 fibrils. Amyloid binding was essentially performed as follows.
Three fresh buffer stocks were prepared for experiments: Buffer 1, 50 mM HEPES/0.1% Bovine Serum Albumin (BSA) pH 7.5; Buffer 2, 50 mM HEPES/0.1% BSA/400 μM ZnCl2 pH 7.5; Buffer 3, 50 mM HEPES/0.1% BSA/100 μM ZnCl2 pH 7.5.
Streptavidin coated scintillation proximity assay beads (SA-SPA beads, Amersham Biosciences) were used to immobilise fibrillar Beta-Amyloid Protein (BAP 1-40). Amyloid coated beads (SPA-BAP) were prepared by incubating 250 μl SA-SPA beads (100 mg/ml) with 250 μl Buffer 2, 425 μl Buffer 1, 50 μl biotinylated BAP 1-40 (0.5 mg/ml, Biosource 03–243), 25 μl BAP 1-40 (10 mg/ml, Biosource 03–138). Non-specific binding SPA beads (SPA-NSB) were prepared to assess the binding of compounds to SPA beads with no associated BAP 1-40 fibrils in the following incubation: 250 μl SA-SPA beads (100 mg/ml) with 250 μl Buffer 2, 500 μl Buffer 1.
SPA-BAP and SPA-NSB incubations were left for 24 hours at room temperature and then spun 1.5 ml tubes (eppendorf, Merk, 306/0421/12) for 2 minutes at 1000×g. The supernatants were removed and the beads were washed twice by resuspending them in 1 ml Buffer 3 followed by centrifugation for 2 minutes at 1000×g. Finally, washed SPA-BAP and SPA-NSB beads were resuspended in 1 ml Buffer 3.
Amyloid binding of ^125I-BAP 1-40 and test compounds was performed in triplicate in 0.5 ml tubes (eppendorf, Merk, 306/0421/02) by adding 50 μl SPA-BAP beads to 25 μl Buffer 2 and 25 μl labelled compound (^125I-BAP 1-40 or test compound). Tubes were then incubated for 180 minutes at room temperature with shaking, followed by centrifugation for 2 minutes at 1000×g. The supematants were removed and SPA-BAP pellet washed twice with 300 μl Buffer 3 containing 1% TWEEN-20 (Sigma, P7949). Non-specific binding for labelled compounds to the SPA beads was determined using incubations as described above but by substituting SPA-BAP beads with SPA-NSB beads. Radioactivity associated with the washed SPA bead pellets was then determined.
The affinity of labelled compounds for fibrillar BAP 1-40 was estimated by subtracting SPA-NSB associated counts from SPA-BAP associated counts. The binding of labelled compounds was then compared to ^125I-BAP binding, which was taken as being 100%.
In these experiments, ^125I-BAP 1-40 or test compounds were added in equimolar amounts.

Amyloid binding (% of 125I-BAP 1-40) [%] | Molecule
15 | CCN(CC)CCCOc1ccc(C(=O)c2c(-c3ccc(OCC(=O)NCCN(CCNC(C)(C)/C(C)=N/O)CCNC(C)(C)/C(C)=N/O)cc3)oc3ccc(Cl)cc23)cc1 [Example 2(vii) Pn216 conjugated]
23 | CCN(CC)CCOc1ccc(C(=O)c2c(-c3ccc(OCC(=O)NCCN(CCNC(C)(C)/C(C)=N\O)CCNC(C)(C)/C(C)=N\O)cc3)oc3ccc(Cl)cc23)cc1 [Example 1(vii) Pn216 conjugated]
100 | ^125I-BAP 1-40: 125I-beta amyloid protein 1-40, Amersham Biosciences IM294; reference whose binding to amyloid fibrils is taken as 100% [reference compound]

More lines, now with the values behind:

Molecule | Amyloid binding (% of 125I-BAP 1-40) [%]
C/C(=N\O)C(C)(C)NCCN(CCNC(=O)COc1ccc(-c2cc3cc(Cl)ccc3o2)cc1)CCNC(C)(C)/C(C)=N/O [Example 8(iii) Pn216 conjugated] | 40
^125I-KKLVFFA (BAP 15-21): 125I-labelled BAP 15–21 sequence (Amersham Biosciences), responsible for the binding of BAP to itself (also: 125I label) [reference compound] | 21
